In US11111500B2, “Mutated protoporphyrinogen IX oxidase (PPX) genes” (CIBUS US LLC, priority 2010, dated 2021):

Test system: potato plastidal PPX
Assay: Tolerance to flumioxazin of HemG mutant E. coli complemented with potato plastidal PPX (liquid selection, colony count)
Type: cell-based, Solanum tuberosum
Excerpt: StcPPX1, less its chloroplast transit peptide was cloned from cDNA into Cibus' proprietary functional screening vector. This vector may be used both for functional screening, and for GRON QC. The potato PPX genes were used to complement the HemG mutant strain of E. coli, which lacks a functional HemG gene, a bacterial homolog of PPX. Without a complementing gene, the media must be supplemented with hematin for E. coli growth.
In order to assess mutations that confer tolerance to PPX inhibitors such as Chateau (flumioxazin-Valent/Sumitomo), Naja (diphenylether—MAI) or Kixor (saflufenacil—BASF). Pure active ingredients for the PPX inhibiting herbicides Chateau (flumioxazin—Valent/Sumitomo), Spartan (sulfentrazone—FMC) and Kixor/Sharpen (saflufenacil—BASF) were obtained. […]
Liquid culture selection conditions were developed for both sulfentrazone and flumioxazin. […] Spectrophotometric readings (OD600) were taken for each sample (1:4 dilution) and a sample of each plated on LB-Chlor-IPTG plates to determine whether the OD600 correlated with the number of viable colonies. […]
Randomly mutagenized plasmids (5′ and 3′ ends) were transformed into XL1-Blue E. coli cells. […] Colony counts were compared between the two and mutation tolerance determined based on the percentage of colonies on the 0.75 mM sulfentrazone plates as compared with those on the 0 mM plates. […]

## C#CCN1C(=O)COc2cc(F)c(N3C(=O)C4=C(CCCC4)C3=O)cc21 [flumioxazin]
0 to 10 mM in 1 mL liquid cultures
  colony numbers against the WT gene with increasing flumioxazin: steadily decreasing colony numbers
10 mM flumioxazin, liquid selection
  growth of the wildtype construct at 10 mM flumioxazin: limited growth
